Measurements from US6127519A, “Calcitonin derivatives” (Tsumura & Co., priority 1990, dated 2000).
Numbered stars: 1 amine (or outer) side, 2 acyl side, 3 side chain; on linkers, the order of the positions; unused ones are H or OH. Bridge positions count the residues as written; N and C are the ends. Peptide text beside a SMILES is read from it. Suc = O=C(CCC(=O)[*:2])[*:1]

Test system: calcium concentration in the serum
Assay: Test 1: reduction of calcium level in serum after tail vein administration to rats
Format: in vivo, rats of the Wistar strain
Conditions: 1 ml/kg tail vein, female Wistar rats
In short: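 Female Wistar rats, six weeks old, were assigned in groups of 4 and given the test peptides through the tail vein at 1 ml/kg. The peptides were dissolved in 1% aqueous sodium acetate (pH 4,0) containing 0.1% BSA. Blood (0.3 ml) was drawn from the neck vein immediately before dosing and at set times afterward. Serum was separated by centrifuging at 3500 rpm for 20 minutes. Calcium was measured on a TBA-380 analyzer with a Wako o-cpc kit, and the percentage reduction in serum calcium was calculated.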

[1] = concentration 830 ng/ml, 0 hour (just before administration)
[2] = concentration 830 ng/ml, 1 hour
[3] = concentration 830 ng/ml, 2 hours
[4] = concentration 830 ng/ml, 4 hours
[5] = concentration 830 ng/ml, 6 hours

| SMILES | Serum calcium level as percent of pre-dose baseline [1] [%] | Serum calcium level as percent of pre-dose baseline [2] [%] | Serum calcium level as percent of pre-dose baseline [3] [%] | Serum calcium level as percent of pre-dose baseline [4] [%] | Serum calcium level as percent of pre-dose baseline [5] [%] | Serum calcium level as percent of pre-dose baseline (concentration 83 ng/ml, 0 hour (just before administration)) [%] | Serum calcium level as percent of pre-dose baseline (concentration 83 ng/ml, 1 hour) [%] | Serum calcium level as percent of pre-dose baseline (concentration 83 ng/ml, 2 hours) [%] | Serum calcium level as percent of pre-dose baseline (concentration 83 ng/ml, 4 hours) [%] | Serum calcium level as percent of pre-dose baseline (concentration 83 ng/ml, 6 hours) [%] |
| --- | --- | --- | --- | --- | --- | --- | --- | --- | --- | --- |
| CC[C@H](C)[C@H](NC(=O)[C@H](C)NC(=O)[C@@H](NC(=O)[C@H](CCC(N)=O)NC(=O)[C@@H]1CCCN1C(=O)[C@H](Cc1ccc(O)cc1)NC(=O)[C@@H](NC(=O)[C@H](CCC(N)=O)NC(=O)[C@H](CC(C)C)NC(=O)[C@H](CCCCN)NC(=O)[C@H](Cc1c[nH]cn1)NC(=O)[C@H](CC(C)C)NC(=O)[C@H](CCC(=O)O)NC(=O)[C@H](CCC(N)=O)NC(=O)[C@H](CO)NC(=O)[C@H](CC(C)C)NC(=O)[C@H](CCCCN)NC(=O)CNC(=O)[C@H](CC(C)C)NC(=O)[C@H](CCSC)NC(=O)[C@@H]1CSSC[C@H](N)C(=O)NCC(=O)N[C@@H](CC(N)=O)C(=O)N[C@@H](CC(C)C)C(=O)N[C@@H](CO)C(=O)N[C@@H]([C@@H](C)O)C(=O)N1)[C@@H](C)O)[C@@H](C)O)C(=O)NCC(=O)N[C@@H](CO)C(=O)NCC(=O)N[C@H](C(=O)N1CCC[C@H]1C(N)=O)[C@@H](C)O [Peptide No. 5] (H-CGNLSTCMLGKLSQELHKLQTYPQTAIGSGTP-NH2; disulfide 1-7) | 100.0 | 76.4 | 74.2 | 70.7 | 76.4 | – | – | – | – | – |
| CC[C@H](C)[C@H](NC(=O)[C@H](C)NC(=O)[C@@H](NC(=O)[C@H](CCC(N)=O)NC(=O)[C@@H]1CCCN1C(=O)[C@H](Cc1ccc(O)cc1)NC(=O)[C@@H](NC(=O)[C@H](CCC(N)=O)NC(=O)[C@H](CC(C)C)NC(=O)[C@H](CCCCN)NC(=O)[C@H](Cc1c[nH]cn1)NC(=O)[C@H](CC(C)C)NC(=O)[C@H](CCC(=O)O)NC(=O)[C@H](CCC(N)=O)NC(=O)[C@H](CO)NC(=O)[C@H](CC(C)C)NC(=O)[C@H](CCCCN)NC(=O)CNC(=O)[C@H](CC(C)C)NC(=O)[C@H](CC(C)C)NC(=O)[C@@H]1CCCCNC(=O)CCC(=O)N[C@@H](CC(N)=O)C(=O)N[C@@H](CC(C)C)C(=O)N[C@@H](CO)C(=O)N[C@@H]([C@@H](C)O)C(=O)N1)[C@@H](C)O)[C@@H](C)O)C(=O)NCC(=O)N[C@H](C(=O)NCC(=O)N[C@@H](C)C(=O)N1CCC[C@H]1C(N)=O)C(C)C [Peptide No. 26] (NLSTKLLGKLSQELHKLQTYPQTAIGVGAP-NH2; linker N-5 via Suc) | 100.0 | 73.9 | 62.9 | 52.1 | 48.2 | 100.0 | 78.9 | 67.6 | 70.4 | 75.2 |
| CC[C@H](C)[C@H](NC(=O)[C@H](C)NC(=O)[C@@H](NC(=O)[C@H](CCC(N)=O)NC(=O)[C@@H]1CCCN1C(=O)[C@H](Cc1ccc(O)cc1)NC(=O)[C@H](CC(C)C)NC(=O)[C@H](CCCCN)NC(=O)[C@H](Cc1c[nH]cn1)NC(=O)[C@H](CC(C)C)NC(=O)[C@H](CCC(=O)O)NC(=O)[C@H](CCC(N)=O)NC(=O)[C@H](CO)NC(=O)[C@H](CC(C)C)NC(=O)[C@H](CCCCN)NC(=O)CNC(=O)[C@H](CC(C)C)NC(=O)[C@H](CCSC)NC(=O)[C@@H]1CSSC[C@H](N)C(=O)NCC(=O)N[C@@H](CC(N)=O)C(=O)N[C@@H](CC(C)C)C(=O)N[C@@H](CO)C(=O)N[C@@H]([C@@H](C)O)C(=O)N1)[C@@H](C)O)C(=O)NCC(=O)N[C@H](C(=O)NCC(=O)N[C@@H](C)C(=O)N1CCC[C@H]1C(N)=O)C(C)C [Peptide No. 3] (H-CGNLSTCMLGKLSQELHKLYPQTAIGVGAP-NH2; disulfide 1-7) | 100.0 | 97.0 | 94.9 | 86.4 | 89.9 | – | – | – | – | – |
